Results reported in patent publication US9321742B2, “N1-cyclic amine-N5-substituted biguanide derivatives, methods of preparing the same and pharmaceutical composition comprising the same” (IMMUNOMET THERAPEUTICS INC., priority 2011, dated 2016).

Legend:
HCT116 cells = assay: Measurement of effect of inhibiting cancer cell proliferation (MTT); assay type: cell-based; conditions: Homo sapiens; for inhibition at 100 µM: HCT-116, 100 uM, 48 hours, read-out: Cell Growth Inhibition (%) at 100 uM; for GI50: HCT-116, 48 hours
Text: HCT116 cells derived from human colorectal cancer (commercially available from the Korean Cell Line Bank) were used, and the effect of inhibiting cancer cell proliferation of the biguanide derivative was confirmed by measuring the concentration value (cell growth inhibition concentration, GIC50) at which cell growth was inhibited by 50% using a 3-(4,5-dimethylthiazol-2-yl)-2,5-[…] bromide (MTT) reagent.
First, HCT116 cells were put on a 96-well plate and cultured in a DMEM medium containing 10% fetal bovine serum for 16 hours so that the cellcount in each well was approximately 5,000. Subsequently, to obtain the GIC50 value of each compound, culture media were treated with 100 μM, 25 μM, 6.25 μM, 1.56 μM or 0.39 μM of the compound, and then cultured for 48 hours. At this time, some of the compounds were treated with 200 μM instead of 100 μM. Metformin hydrochloride was used as the control, and the culture media were treated with 25, 12.5, 2.5, 0.5, 0.1 mM metformin hydrochloride, and then tested in the same manner as described in the derivatives synthesized in the examples. In order to determine whether the cells survived after treatment with the compound, MTT was added to the culture media which were then cultured for another 3 hours. Formed formazane crystals were dissolved using dimethyl sulfoxide (DMSO), and the absorbance of the resulting solution was measured at 560 nm. After the 48-hours culture, the ratio of the cell count cultured on a well plate not treated with the compound to the living cell count on a well plate treated with the compounds synthesized in the examples was indicated as cell viability (%) according to each treated concentration. A cell viability curve graph was plotted and the concentration (GIC50) value of the compound at which the growth was inhibited by 50% was calculated to confirm the effect of inhibition of cancer cell proliferation. Also, the cell growth viability (%) when the concentration of the treated biguanide derivative and the metformin hydrochloride as the control were 100 uM was shown.

AMPKα = assay: Measurement of AMPK-activation effect (AMPKα Thr172 phosphorylation immunoassay in MCF7 cells); assay type: cell-based, human; conditions: 24 hours; for AMPK activation effect 10 uM (%) / AMPK activation effect 50 uM (%): relative to untreated cells
Method: MCF7 cells derived from human breast cancer cells (commercially available from the Korean Cell Line Bank) were used, and the AMPK (5′-AMP-activated protein kinase alpha)-activation effect of the biguanide derivative was confirmed using an AMPKα immunoassay kit (Invitrogen, Catalog No. KH00651).
MCF7 cells were cultured in a DMEM medium supplemented with 10% fetal bovine serum. Thereafter, the cultured MCF7 cells were put into a 6-well plate with approximately 5×10^5 cells per well and cultured in an incubator supplied with 5% CO2. Culture media were treated with the derivatives synthesized in the examples at contents of 5, 10 and 50 μM, and then cultured for 24 hours. Metformin hydrochloride was used as the control, and the culture media were treated with 0.05, 0.5, 1, 2, 5 and 10 mM metformin hydrochloride, and then tested in the same manner as described in the derivatives synthesized in the examples. Subsequently, the cells were lysed according to a method presented in the operation manual of the AMPKα immunoassay kit, and 20 μg of a cell lysate was then yielded through protein assay. Thereafter, the AMPK activation effect was obtained by determining the degree of phosphorylation of 172nd threonine residue (Thr172) of the AMPKα from the cell lysate according to the method presented in the operation manual of the AMPKα immunoassay kit. […] A curve graph showing AMPK activation according to the concentration of the treated compounds was plotted based on the obtained AMPKα activation results, the concentration (activation concentration 150, AC150) value of the compound whose AMPK activation reached 150% was calculated using a GraphPad Prism 5.0 program, and the degrees of AMPK activation were obtained when concentrations of the treated biguanide derivatives were 10 μM and 50 μM and the metformin hydrochloride was 50 μM.

Cl.N=C(NCc1ccc(OC(F)(F)F)cc1)NC(=N)N1CCCCC1 [Example 42, N1-piperidine-N5-(4-trifluoromethoxy)benzyl biguanide hydrochloride]
inhibition at 100 µM (HCT116 cells): 96.8% | GI50 (HCT116 cells): 16.2 µM | AMPK activation effect 10 uM (%) (AMPKα): 472% | AMPK activation effect 50 uM (%) (AMPKα): 554% | AC150 (concentration at which AMPK activation reached 150%) (AMPKα): 0.8 µM | melting point: 268 to 269 °C

Cl.N=C(NC(=N)N1CCCCC1)NC1CCCCCC1 [Example 18, N1-piperidine-N5-cycloheptyl biguanide hydrochloride]
inhibition at 100 µM (HCT116 cells): 64.3% | GI50 (HCT116 cells): 23.1 µM | AMPK activation effect 10 uM (%) (AMPKα): 304% | AMPK activation effect 50 uM (%) (AMPKα): 719% | AC150 (concentration at which AMPK activation reached 150%) (AMPKα): 2.2 µM | melting point: 237 to 238 °C

Cl.N=C(NCc1ccc(Cl)c(Cl)c1)NC(=N)N1CCCC1 [Example 54, N1-pyrrolidine-N5-(3,4-dichloro)benzyl biguanide hydrochloride]
inhibition at 100 µM (HCT116 cells): 98% | GI50 (HCT116 cells): 21.1 µM | AMPK activation effect 10 uM (%) (AMPKα): 315% | AC150 (concentration at which AMPK activation reached 150%) (AMPKα): 0.8 µM | melting point: 219 to 221 °C

Cl.N=C(NCc1ccc(Cl)cc1)NC(=N)N1CCCCCC1 [Example 33, N1-azepane-N5-(4-chloro)benzyl biguanide hydrochloride]
inhibition at 100 µM (HCT116 cells): 25.3% | GI50 (HCT116 cells): 4.9 µM | AMPK activation effect 50 uM (%) (AMPKα): 443% | AC150 (concentration at which AMPK activation reached 150%) (AMPKα): 1.2 µM | melting point: 222 to 223 °C

Cl.N=C(NCc1ccco1)NC(=N)N1CCCCC1 [Example 23, N1-piperidine-N5-(furan-2-ylmethyl)biguanide hydrochloride]
inhibition at 100 µM (HCT116 cells): 39.5% | GI50 (HCT116 cells): > 100 µM | AMPK activation effect 10 uM (%) (AMPKα): 112% | AMPK activation effect 50 uM (%) (AMPKα): 298% | AC150 (concentration at which AMPK activation reached 150%) (AMPKα): 15.8 µM | melting point: 251 to 252 °C

Cl.N=C(NCc1cccc(C(F)(F)F)c1)NC(=N)N1CCCCC1 [Example 7, N1-piperidine-N5-(3-trifluoromethyl)benzyl biguanide hydrochloride]
inhibition at 100 µM (HCT116 cells): 97.4% | GI50 (HCT116 cells): 17.2 µM | AMPK activation effect 10 uM (%) (AMPKα): 582% | AMPK activation effect 50 uM (%) (AMPKα): 677% | AC150 (concentration at which AMPK activation reached 150%) (AMPKα): 1.0 µM | melting point: 259 to 260 °C

Cl.N=C(NCc1ccc(OC(F)(F)F)cc1)NC(=N)N1CCC1 [Example 40, N1-azetidine-N5-(4-trifluoromethoxy)benzyl biguanide hydrochloride]
inhibition at 100 µM (HCT116 cells): 97.8% | GI50 (HCT116 cells): 36.9 µM | AMPK activation effect 10 uM (%) (AMPKα): 673% | AMPK activation effect 50 uM (%) (AMPKα): 1076% | AC150 (concentration at which AMPK activation reached 150%) (AMPKα): 3.9 µM | melting point: 182 to 184 °C

Cl.N=C(NCc1ccc(C(F)(F)F)c(Cl)c1)NC(=N)N1CCCCC1 [Example 47, N1-piperidine-N5-(3-chloro-4-trifluoromethyl)benzyl biguanide hydrochloride]
inhibition at 100 µM (HCT116 cells): 100% | GI50 (HCT116 cells): 7.4 µM | AMPK activation effect 10 uM (%) (AMPKα): 433% | AMPK activation effect 50 uM (%) (AMPKα): 384% | AC150 (concentration at which AMPK activation reached 150%) (AMPKα): 4.4 µM | melting point: 254 to 256 °C

Cl.N=C(NC(=N)N1CCCCCC1)NC1CCCCCC1 [Example 19, N1-azepane-N5-cycloheptyl biguanide hydrochloride]
inhibition at 100 µM (HCT116 cells): 94.7% | GI50 (HCT116 cells): 35.7 µM | AMPK activation effect 10 uM (%) (AMPKα): 213% | AMPK activation effect 50 uM (%) (AMPKα): 325% | AC150 (concentration at which AMPK activation reached 150%) (AMPKα): 5.6 µM | melting point: 237 to 238 °C

Cl.N=C(NCc1ccc(Br)cc1)NC(=N)N1CCCCC1 [Example 35, N1-piperidine-N5-(4-bromo)benzyl biguanide hydrochloride]
inhibition at 100 µM (HCT116 cells): 53.8% | GI50 (HCT116 cells): 23.2 µM | AMPK activation effect 10 uM (%) (AMPKα): 140% | AMPK activation effect 50 uM (%) (AMPKα): 150% | AC150 (concentration at which AMPK activation reached 150%) (AMPKα): 1.1 µM | melting point: 261 to 262 °C

Cl.N=C(NC(=N)N1CCCCCC1)NC1CCCC1 [Example 15, N1-azepane-N5-cyclopentyl biguanide hydrochloride]
inhibition at 100 µM (HCT116 cells): 27.9% | GI50 (HCT116 cells): > 100 µM | AMPK activation effect 10 uM (%) (AMPKα): 174% | AMPK activation effect 50 uM (%) (AMPKα): 291% | AC150 (concentration at which AMPK activation reached 150%) (AMPKα): 7.0 µM | melting point: 224 to 225 °C
